In publication PMC10790229 (Journal of medicinal chemistry, 2023):

Assays:
Format in all cases: cell-based
[1] = test system: HIV-1 IIIB; test: Anti-HIV-1 activity in MT-4 cells; settings: MT-4 cells; for SI IIIB (CC50/EC50): HIV-1 IIIB
[2] = test system: HIV-2 ROD; test: Anti-HIV-2 activity in MT-4 cells; settings: HIV-2 ROD; for EC50: read-out: EC50 ROD, 50% protection of MT-4 cells against HIV-induced cytotoxicity
[3] = test system: MT-4 cells; test: Cytotoxicity in uninfected MT-4 cells

Compound	SI IIIB (CC50/EC50) [1]	Ratio IIIB(EC50)/ROD(EC50) [1]	SI ROD (CC50/EC50) ([2]; MT-4 cells)	EC50 [2]	CC50 [3]	fold improvement of anti-HIV-2 potency over PF74 ([2]; MT-4 cells)
Nc1ccc(S(=O)(=O)N2CCN(CC(=O)N[C@@H](Cc3cc(F)cc(F)c3)c3nc4ccccc4c(=O)n3-c3ccc(S(=O)(=O)N4CCS(=O)(=O)CC4)cc3)C(=O)C2)cc1 [21b2, (S)-2-(4-((4-Aminophenyl)sulfonyl)-2-oxopiperazin-1-yl)-N-(2-(3,5-difluorophenyl)-1-(3-(4-((1,1-dioxidothiomorpholino)sulfonyl)-phenyl)-4-oxo-3,4-dihydroquinazolin-2-yl)ethyl)acetamide]	>95.42	2.52	>240.38	600 ± 150 nM	> 144000 nM	
COc1ccc(-n2c([C@H](Cc3ccccc3)NC(=O)CN3CCN(S(=O)(=O)c4ccc([N+](=O)[O-])cc4)CC3=O)nc3cc(Br)ccc3c2=O)cc1 [11d1, (S)-N-(1-(7-Bromo-3-(4-methoxyphenyl)-4-oxo-3,4-dihydroquinazolin-2-yl)-2-phenylethyl)-2-(4-((4-nitrophenyl)sulfonyl)-2-oxopiperazin-1-yl)acetamide]	>67.20	6.67	>446.43	360 ± 30 nM	> 161000 nM	
COc1ccc(-n2c([C@H](Cc3ccccc3)NC(=O)CN3CCN(S(=O)(=O)c4ccc([N+](=O)[O-])cc4)CC3=O)nc3cc(Cl)ccc3c2=O)cc1 [11c1, (S)-N-(1-(7-Chloro-3-(4-methoxyphenyl)-4-oxo-3,4-dihydroquinazolin-2-yl)-2-phenylethyl)-2-(4-((4-nitrophenyl)sulfonyl)-2-oxopiperazin-1-yl)acetamide]	>79.11	5.14	>403.23	420 ± 40 nM	> 171000 nM	
COc1ccc(-n2c([C@H](Cc3ccccc3)NC(=O)CN3CCN(S(=O)(=O)c4ccc([N+](=O)[O-])cc4)CC3=O)nc3ccccc3c2=O)cc1 [11a1, (S)-N-(1-(3-(4-Methoxyphenyl)-4-oxo-3,4-dihydroquinazolin-2-yl)-2-phenylethyl)-2-(4-((4-nitrophenyl)sulfonyl)-2-oxopiperazin-1-yl)acetamide]	>119.05		>312.50			
(S)-N-(2-(3,5-Difluorophenyl)-1-(7-fluoro-3-(4-methoxyphenyl)-4-oxo-3,4-dihydroquinazolin-2-yl)ethyl)-2-(4-((4-nitrophenyl)sulfonyl)-2-oxopiperazin-1-yl)acetamide [11b2]	>337.84	1.40	>480.77	350 ± 30 nM	> 167000 nM	
(S)-N-(1-(7-Chloro-3-(4-methoxyphenyl)-4-oxo-3,4-dihydroquinazolin-2-yl)-2-(3,5-difluorophenyl)ethyl)-2-(4-((4-nitrophenyl)sulfonyl)-2-oxopiperazin-1-yl)acetamide [11c2]	>277.78	1.48	>403.23	400 ± 100 nM	> 163000 nM	
O=C(CN1CCN(S(=O)(=O)c2ccc([N+](=O)[O-])cc2)CC1=O)N[C@@H](Cc1cc(F)cc(F)c1)c1nc2ccccc2c(=O)n1-c1ccc(S(=O)(=O)N2CCOCC2)cc1 [20a2, (S)-N-(2-(3,5-Difluorophenyl)-1-(3-(4-(morpholinosulfonyl)-phenyl)-4-oxo-3,4-dihydroquinazolin-2-yl)ethyl)-2-(4-((4-nitrophenyl)sulfonyl)-2-oxopiperazin-1-yl)acetamide]	>892.86	0.89	>833.33	180 ± 50 nM	> 147000 nM	
COc1ccc(-n2c([C@H](Cc3ccccc3)NC(=O)CN3CCN(S(=O)(=O)c4ccc([N+](=O)[O-])cc4)CC3=O)nc3cc(S(C)(=O)=O)ccc3c2=O)cc1 [11e1, (S)-N-(1-(3-(4-Methoxyphenyl)-7-(methylsulfonyl)-4-oxo-3,4-dihydroquinazolin-2-yl)-2-phenylethyl)-2-(4-((4-nitrophenyl)-sulfonyl)-2-oxopiperazin-1-yl)acetamide]	>58.14	8.66	>500.00	320 ± 30 nM	> 161000 nM	
COc1ccc(-n2c([C@H](Cc3cc(F)cc(F)c3)NC(=O)CN3CCN(S(=O)(=O)c4ccc([N+](=O)[O-])cc4)CC3=O)nc3cc(S(C)(=O)=O)ccc3c2=O)cc1 [11e2, (S)-N-(2-(3,5-Difluorophenyl)-1-(3-(4-methoxyphenyl)-7-(methylsulfonyl)-4-oxo-3,4-dihydroquinazolin-2-yl)ethyl)-2-(4-((4-nitrophenyl)sulfonyl)-2-oxopiperazin-1-yl)acetamide]	>83.89	4.49	>378.79	410 ± 50 nM	> 154000 nM	
(S)-2-(4-((4-Aminophenyl)sulfonyl)-2-oxopiperazin-1-yl)-N-(1-(3-(4-methoxyphenyl)-7-(methylsulfonyl)-4-oxo-3,4-dihydroquinazolin-2-yl)-2-phenylethyl)acetamide [12e1]	>43.71	10.97	>480.77	350 ± 30 nM	> 168000 nM	
COc1ccc(-n2c([C@H](Cc3ccccc3)NC(=O)CN3CCN(S(=O)(=O)c4ccc(N)cc4)CC3=O)nc3cc(F)ccc3c2=O)cc1 [12b1, (S)-2-(4-((4-Aminophenyl)sulfonyl)-2-oxopiperazin-1-yl)-N-(1-(7-fluoro-3-(4-methoxyphenyl)-4-oxo-3,4-dihydroquinazolin-2-yl)-2-phenylethyl)acetamide]	>223.21	5.47	>1250.00	150 ± 30 nM	> 183000 nM	
O=C(CN1CCN(S(=O)(=O)c2ccc([N+](=O)[O-])cc2)CC1=O)N[C@@H](Cc1ccccc1)c1nc2ccccc2c(=O)n1-c1ccc(S(=O)(=O)N2CCS(=O)(=O)CC2)cc1 [20b1, (S)-N-(1-(3-(4-((1,1-Dioxidothiomorpholino)sulfonyl)phenyl)-4-oxo-3,4-dihydroquinazolin-2-yl)-2-phenylethyl)-2-(4-((4-nitrophenyl)sulfonyl)-2-oxopiperazin-1-yl)acetamide]	>11.47	17.29	>198.41	730 ± 160 nM	> 145000 nM	
(S)-2-(4-((4-Aminophenyl)sulfonyl)-2-oxopiperazin-1-yl)-N-(1-(7-chloro-3-(4-methoxyphenyl)-4-oxo-3,4-dihydroquinazolin-2-yl)-2-phenylethyl)acetamide [12c1]	>290.70	6.10	>1736.11	100 ± 20 nM	> 178000 nM	
Nc1ccc(S(=O)(=O)N2CCN(CC(=O)N[C@@H](Cc3ccccc3)c3nc4ccccc4c(=O)n3-c3ccc(S(=O)(=O)N4CCS(=O)(=O)CC4)cc3)C(=O)C2)cc1 [21b1, (S)-2-(4-((4-Aminophenyl)sulfonyl)-2-oxopiperazin-1-yl)-N-(1-(3-(4-((1,1-dioxidothiomorpholino)sulfonyl)phenyl)-4-oxo-3,4-dihydroquinazolin-2-yl)-2-phenylethyl)acetamide]	>75.76	3.67	>277.78	540 ± 130 nM	> 150000 nM	
COc1ccc(-n2c([C@H](Cc3cc(F)cc(F)c3)NC(=O)CN3CCN(S(=O)(=O)c4ccc([N+](=O)[O-])cc4)CC3=O)nc3ccccc3c2=O)cc1 [11a2, (S)-N-(2-(3,5-Difluorophenyl)-1-(3-(4-methoxyphenyl)-4-oxo-3,4-dihydroquinazolin-2-yl)ethyl)-2-(4-((4-nitrophenyl)sulfonyl)-2-oxopiperazin-1-yl)acetamide]	>320.51	1.29	>416.67	410 ± 40 nM	> 171000 nM	
COc1ccc(-n2c([C@H](Cc3cc(F)cc(F)c3)NC(=O)CN3CCN(S(=O)(=O)c4ccc(N)cc4)CC3=O)nc3cc(Cl)ccc3c2=O)cc1 [12c2, (S)-2-(4-((4-Aminophenyl)sulfonyl)-2-oxopiperazin-1-yl)-N-(1-(7-chloro-3-(4-methoxyphenyl)-4-oxo-3,4-dihydroquinazolin-2-yl)-2-(3,5-difluorophenyl)ethyl)acetamide]	>1250.00	1.75	>2083.33	80 ± 10 nM	> 170000 nM	47 fold
COc1ccc(-n2c([C@H](Cc3cc(F)cc(F)c3)NC(=O)CN3CCN(S(=O)(=O)c4ccc([N+](=O)[O-])cc4)CC3=O)nc3cc(Br)ccc3c2=O)cc1 [11d2, (S)-N-(1-(7-Bromo-3-(4-methoxyphenyl)-4-oxo-3,4-dihydroquinazolin-2-yl)-2-(3,5-difluorophenyl)ethyl)-2-(4-((4-nitrophenyl)sulfonyl)-2-oxopiperazin-1-yl)acetamide]	>156.25	1.68	>260.42	590 ± 200 nM	> 154000 nM	
(S)-2-(4-((4-Aminophenyl)sulfonyl)-2-oxopiperazin-1-yl)-N-(1-(3-(4-(morpholinosulfonyl)phenyl)-4-oxo-3,4-dihydroquinazolin-2-yl)-2-phenylethyl)acetamide [21a1]	>1041.67	1.50	>1562.50	100 ± 10 nM	> 159000 nM	
(S)-2-(4-((4-Aminophenyl)sulfonyl)-2-oxopiperazin-1-yl)-N-(1-(3-(4-methoxyphenyl)-4-oxo-3,4-dihydroquinazolin-2-yl)-2-phenylethyl)acetamide [12a1]	>290.70	4.27	>1250.00	150 ± 40 nM	> 187000 nM	
